Assay results: paper PMC7582905, “Effect of Disulfide Cyclization of Ultrashort Cationic Lipopeptides on Antimicrobial Activity and Cytotoxicity” (International Journal of Molecular Sciences, 2020)
Where a SMILES comes first, the peptide text is derived from it. The star is where a group is joined. Palmitoyl = CCCCCCCCCCCCCCCC(=O)*

Assays:
[1] = RP-HPLC determination of peptide hydrophobicity; assay type: physicochemical; settings: RP-HPLC retention as measure of hydrophobicity; Waters X-Bridge Shield RP-18 3.0 × 100 mm, 3.5 μm; linear 20–65% acetonitrile in water over 30 min, 0.1% TFA, 0.5 mL/min, 25.0 °C, UV 214 nm; 1 g/L; triplicate
Protocol: The peptides were analyzed by RP-HPLC to determine relative hydrophobicity vs. retention time of each compound. In general, more hydrophobic lipopeptides will elute later than hydrophilic ones. Using this simple rule enables comparison of hydrophobicity by reduced retention times (t’R) and differences in retention time between the cyclic analog and its linear parent lipopeptide (Table 1). It can be deduced that the presence of cystine moiety has led to increased hydrophobicity. All cyclic lipopeptides are more hydrophobic than their linear counterparts but the effect of disulfide cyclization on retention is different in each pair. The highest increase in retention was noticed for the shortest lipopeptides L1 (C16-KKK-NH2) and C1 (C16-CKKKC-NH2). The differences between lipopeptides with one arginine residue indicate that its position is crucial for retention and therefore hydrophobicity. To learn how the arginine position affects hydrophobicity, the retention time of compound L2 (C16-KKKK-NH2) or C2 (C16-CKKKKC-NH2) was subtracted from that of the lipopeptides with one arginine residue, linear (L3, L4, L5, L6) or cyclic (C3, C4, C5, C6), respectively. In Figure 2 the effect of arginine position on retention time is related to unsubstituted lipopeptide.
To determine peptide hydrophobicity, a Waters Alliance e2695 system with a Waters 2998 PDA Detector (software-Empower 3, Waters, Milford, MA, USA) was used. All analyses were carried out on a Waters X-Bridge Shield RP-18 column (3.0 × 100 mm, 3.5 μm particle size, 130 Å pore size). The Shield Technology column with embedded polar groups was used to minimize interactions of unreacted silanol groups with basic lipopeptides. The peptides were dissolved in water (0.1% TFA, v/v) up to a concentration of 1 g/L. UV detection at 214 nm was used, and samples (10 μL) were eluted with a linear 20–65% acetonitrile gradient in deionized water over 30 min at 25.0 ± 0.1 °C. The mobile phase flow rate was 0.5 mL/min. Both eluents contained 0.1% (v/v) of TFA. Each peptide sample was analyzed in triplicate. Maximum standard deviation and coefficient of variation were 0.042 and 0.25%, respectively.

[2] = tested on: human red blood cells (hRBCs); experiment: Hemolysis assay; assay type: cell-based; settings: peptide concentration causing 50% hemolysis; 4% (v/v) hRBCs in PBS, 1 h, 37 °C, absorbance 540 nm, triplicate
Protocol: The hemolysis assay was performed by using the method reported previously. Fresh human red blood cells (hRBCs) with anticoagulant (EDTA) were rinsed three times with a PBS by centrifugation at 800× g for 10 min and diluted with PBS. The lipopeptides were serially diluted on a 96-well microtiter polystyrene plate and hRBCs were added up to a final volume of 100 μL. The peptide concentration ranged between 0.5 and 256 μg/mL and the final hRBCs concentration was 4% (v/v). Controls for zero hemolysis (blank) and 100% hemolysis consisted of hRBCs suspended in PBS and 1% of Triton-X 100, respectively. The plate was incubated for 1 h at 37 °C and then centrifuged (800× g, 10 min, 4 °C). Subsequently, the supernatant was […] to new microtiter plates and the absorbance at 540 nm was measured. All experiments were conducted in triplicate. HC50 was calculated using an ic50.tk tool. Protocol of the study received approval from the local Bioethics Committee at the Medical University of Gdańsk (NKBBN/262/2019, approval date: 10 June 2019).

[3] = tested on: Escherichia coli ATCC 25922; assay type: cell-based; settings: ATCC 25922, 24 h
Protocol: (§1) The Staphylococcus aureus ATCC 25923, Staphylococcus epidermidis ATCC 14990, Escherichia coli ATCC 25922, Pseudomonas aeruginosa ATCC 9027, Candida albicans ATCC 10231, Candida glabrata ATCC 15126, Candida lipolytica PCM 2680-FY, and Candida tropicalis PCM 2709-FY strains were acquired from the Polish Collection of Microorganisms (PCM, Polish Academy of Sciences, Wrocław, Poland) and from the American Type Culture Collection (ATCC). All the strains were stored at −80 °C in Roti-Store cryo vials and before the tests were transferred into fresh Mueller–Hinton broth (MHB, Biocorp, Warsaw, Poland) for bacteria or RPMI-1640 (Sigma-Aldrich, Steinheim, Germany) for fungi and incubated for 24 h at 37 °C. Then, the cultures were seeded on Mueller–Hinton agar (BioMaxima, Lublin, Poland) or Sabouraud dextrose agar (SDA, BioMaxima, Lublin, Poland) plates, respectively, and incubated as just mentioned. These agar cultures were used for further microbiological assays. Cell densities for all assays were adjusted spectrophotometrically (Multiskan GO Microplate Spectrophotometer, Thermo Fisher Scientific, Vantaa, Finland) at 600 and 660 nm for bacteria and fungi, respectively.
(§2) The assay was performed to evaluate the effect of the lipopeptides in preventing biofilm formation. The preparation of inoculums was followed by a ca. 500-fold dilution of the 24 h cultures of microorganisms. Briefly, 50 μL of the compounds in the concentration range, diluted in appropriate medium, were prepared on 96-well polystyrene flat-bottom plates. Subsequently, the 50 μL of the bacterial/fungal inoculums were added to reach the same microbial density as that in the MBEC assay. After 24 h of incubation at 37 °C, the wells were rinsed three times with PBS and the fresh media with resazurin (4 g/L) were added. The MBICs were read after 1 h. All experiments were conducted in triplicate.

[4] = tested on: Candida glabrata ATCC 15126; assay type: cell-based; settings: ATCC 15126, 24 h
Protocol: as §1, §2

[5] = tested on: Pseudomonas aeruginosa ATCC 9027; assay type: cell-based; settings: ATCC 9027, 24 h
Protocol: as §1, §2

[6] = tested on: Candida lipolytica PCM 2680-FY; assay type: cell-based; settings: 24 h
Protocol: as §1, §2

[7] = tested on: Candida albicans ATCC 10231; assay type: cell-based; settings: ATCC 10231, 24 h
Protocol: as §1, §2

[8] = tested on: Staphylococcus epidermidis ATCC 14990; assay type: cell-based; settings: ATCC 14990, 24 h
Protocol: as §1, §2

[9] = tested on: Candida tropicalis PCM 2709-FY; assay type: cell-based; settings: PCM 2709-FY, 24 h
Protocol: as §1, §2

[10] = tested on: Staphylococcus aureus ATCC 25923; assay type: cell-based; settings: ATCC 25923, 24 h
Protocol: as §1, §2

Structure (SMILES)	reduced retention time t’R [1] [min]	HC50 [2] [µg/mL]	MBIC E. coli [3] [µg/mL]	MBIC C. glabrata [4] [µg/mL]	MBIC P. aeruginosa [5] [µg/mL]	MBIC C. lipolytica [6] [µg/mL]	MBIC C. albicans [7] [µg/mL]	MBIC S. epidermidis [8] [µg/mL]	MBIC C. tropicalis [9] [µg/mL]	MBIC S. aureus [10] [µg/mL]
CCCCCCCCCCCCCCCC(=O)N[C@@H](CCCCN)C(=O)N[C@@H](CCCCN)C(=O)N[C@@H](CCCCN)C(N)=O [L1, C16-KKK-NH2]	16.14	90.0 ± 6.5	32	128	32	32	128	16	16	32
CCCCCCCCCCCCCCCC(=O)N[C@@H](CCCCN)C(=O)N[C@@H](CCCCN)C(=O)N[C@@H](CCCCN)C(=O)N[C@@H](CCCCN)C(N)=O [L2, C16-KKKK-NH2] (Palmitoyl-KKKK-NH2)	14.77	105.9 ± 8.0	32	128	64	32	128	16	16	32
CCCCCCCCCCCCCCCC(=O)N[C@@H](CCCNC(=N)N)C(=O)N[C@@H](CCCCN)C(=O)N[C@@H](CCCCN)C(=O)N[C@@H](CCCCN)C(N)=O [L3, C16-RKKK-NH2] (Palmitoyl-RKKK-NH2)	15.21	79.1 ± 6.1	32	64	64	16	64	16	16	32
CCCCCCCCCCCCCCCC(=O)N[C@@H](CCCCN)C(=O)N[C@@H](CCCNC(=N)N)C(=O)N[C@@H](CCCCN)C(=O)N[C@@H](CCCCN)C(N)=O [L4, C16-KRKK-NH2] (Palmitoyl-KRKK-NH2)	15.18	79.8 ± 9.0	32	64	32	16	32	8	8	16
CCCCCCCCCCCCCCCC(=O)N[C@@H](CCCCN)C(=O)N[C@@H](CCCCN)C(=O)N[C@@H](CCCNC(=N)N)C(=O)N[C@@H](CCCCN)C(N)=O [L5, C16-KKRK-NH2] (Palmitoyl-KKRK-NH2)	15.01	96.7 ± 1.4	32	128	64	32	64	16	16	32
CCCCCCCCCCCCCCCC(=O)N[C@@H](CCCCN)C(=O)N[C@@H](CCCCN)C(=O)N[C@@H](CCCCN)C(=O)N[C@@H](CCCNC(=N)N)C(N)=O [L6, C16-KKKR-NH2] (Palmitoyl-KKKR-NH2)	14.89	89.7 ± 2.4	32	64	64	32	64	8	16	32
CCCCCCCCCCCCCCCC(=O)N[C@@H](CCCNC(=N)N)C(=O)N[C@@H](CCCNC(=N)N)C(=O)N[C@@H](CCCCN)C(=O)N[C@@H](CCCCN)C(N)=O [L7, C16-RRKK-NH2] (Palmitoyl-RRKK-NH2)	15.58	65.4 ± 1.5	32	32	64	16	32	16	8	16
